Measured values from the supplement of paper PMC10307832.

How the values were obtained:
Test in all cases: relative viability (nuclei count vs DMSO), 5 days (fraction); higher = more cells survive
NCI-H441 = test system: NCI-H441
In short: (§1)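 Medians of duplicate plates are given as relative viability. That measure is the nuclei count in treated wells divided by the count in vehicle wells. Counts were taken on 4× images of lung cancer cell lines in 1536-well plates, 5 days after pin-tool dosing the day after seeding with one drug alone or a fixed anchor-drug dose plus five library-drug doses (not always all listed) in √10 steps.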

NCI-H322M = test system: NCI-H322M
In short: as §1

NCI-H2347 = test system: NCI-H2347
In short: as §1

RERF-LC-KJ = test system: RERF-LC-KJ
In short: as §1

NCI-H358 = test system: NCI-H358
In short: as §1

NCI-H2228 = test system: NCI-H2228
In short: as §1

LCLC-103H = test system: LCLC-103H
In short: as §1

NCI-H1755 = test system: NCI-H1755
In short: as §1

NCI-H23 = test system: NCI-H23
In short: as §1

HCC-827 = test system: HCC-827
In short: as §1

NCI-H1793 = test system: NCI-H1793
In short: as §1

ChaGo-K-1 = test system: ChaGo-K-1
In short: as §1

PC-3 [JPC-3] = details: first compound 0.253 µM
In short: as §1

Work on `Nc1cccc2c1CN(C1CCC(=O)NC1=O)C2=O` (stereo not drawn) [Lenalidomide] + COc1cc2c(Oc3ccc(NC(=O)C4(C(=O)Nc5ccc(F)cc5)CC4)cc3F)ccnc2cc1OCCCN1CCOCC1 [Foretinib] (partner 0.25 µM) yielded a relative viability (NCI-H441; first compound 0.253 µM) of 1, a relative viability (NCI-H441; first compound 0.8 µM) of 0.722 and a relative viability (NCI-H441; first compound 2.53 µM) of 1.16. It also gave a relative viability (NCI-H441; first compound 8 µM) of 0.795, a relative viability (NCI-H322M; first compound 0.253 µM) of 0.962 and a relative viability (NCI-H322M; first compound 0.8 µM) of 1.05. The relative viability (NCI-H322M; first compound 2.53 µM) was 1.11, the relative viability (NCI-H322M; first compound 8 µM) was 0.902 and the relative viability (NCI-H2347; first compound 0.253 µM) was 0.881. The relative viability (NCI-H2347; first compound 0.8 µM) was 1.05, the relative viability (NCI-H2347; first compound 2.53 µM) was 0.956 and the relative viability (NCI-H2347; first compound 8 µM) was 0.364. It also gave a relative viability (RERF-LC-KJ; first compound 0.253 µM) of 0.891, a relative viability (RERF-LC-KJ; first compound 0.8 µM) of 0.886 and a relative viability (RERF-LC-KJ; first compound 2.53 µM) of 0.962. It also gave a relative viability (RERF-LC-KJ; first compound 8 µM) of 0.793, a relative viability (NCI-H358; first compound 0.253 µM) of 0.47 and a relative viability (NCI-H358; first compound 0.8 µM) of 0.987. For the same compound, the relative viability (NCI-H358; first compound 2.53 µM) was 0.791, the relative viability (NCI-H358; first compound 8 µM) was 0.797 and the relative viability (NCI-H2228; first compound 0.253 µM) was 0.943. It also gave a relative viability (NCI-H2228; first compound 0.8 µM) of 0.907, a relative viability (NCI-H2228; first compound 2.53 µM) of 1.04 and a relative viability (NCI-H2228; first compound 8 µM) of 0.975. The relative viability (LCLC-103H; first compound 0.253 µM) was 0.761, the relative viability (LCLC-103H; first compound 0.8 µM) was 0.806 and the relative viability (LCLC-103H; first compound 2.53 µM) was 0.888. It also gave a relative viability (LCLC-103H; first compound 8 µM) of 0.682, a relative viability (NCI-H1755; first compound 0.253 µM) of 0.915 and a relative viability (NCI-H1755; first compound 0.8 µM) of 0.904. The relative viability (NCI-H1755; first compound 2.53 µM) was 0.886, the relative viability (NCI-H1755; first compound 8 µM) was 0.782 and the relative viability (NCI-H23; first compound 0.253 µM) was 0.926. The relative viability (NCI-H23; first compound 0.8 µM) was 1.13, the relative viability (NCI-H23; first compound 2.53 µM) was 0.847 and the relative viability (NCI-H23; first compound 8 µM) was 1.03. It also gave a relative viability (HCC-827; first compound 0.253 µM) of 1.03, a relative viability (HCC-827; first compound 0.8 µM) of 1.05 and a relative viability (HCC-827; first compound 2.53 µM) of 1.01. For the same compound, the relative viability (HCC-827; first compound 8 µM) was 1.04, the relative viability (NCI-H1793; first compound 0.253 µM) was 0.706 and the relative viability (NCI-H1793; first compound 2.53 µM) was 1.04. The relative viability (NCI-H1793; first compound 8 µM) was 0.655, the relative viability (ChaGo-K-1; first compound 0.253 µM) was 0.949 and the relative viability (ChaGo-K-1; first compound 0.8 µM) was 0.873. For the same compound, the relative viability (ChaGo-K-1; first compound 2.53 µM) was 0.975, the relative viability (ChaGo-K-1; first compound 8 µM) was 1.06 and the relative viability (PC-3 [JPC-3]) was 1.06.
